Test system: Duchenne Muscular Dystrophy (DMD) patients
Experiment: Double-blind, placebo-controlled, randomised clinical trial: pulmonary function testing in DMD patients
Assay type: in vivo, human
Procedure: Efficacy of idebenone on respiratory parameters in Duchenne Muscular Dystrophy (DMD) patients was assessed in a double-blind, placebo-controlled, randomised parallel group, clinical trial conducted in one singe clinical center. DMD patients at age 8 to 16 years were treated with idebenone or placebo over a period of 52 weeks. After written informed consent was obtained from the patient and the patient's parent/legal guardian, patients who met the protocol eligibility criteria were enrolled at the study centre and randomised to daily treatment of idebenone (150 mg, 3× daily; total daily dose of 450 mg) or placebo (3× daily). Efficacy was assessed at baseline and at weeks 26 and 52.
A total of 21 patients were enrolled, 13 patients were randomised to treatment with idebenone and 8 randomised to treatment with placebo.
Idebenone was formulated as a round biconvex shaped, film-coated orange tablet, with a 10 mm diameter, containing 150 mg of idebenone and Lactose Monohydrate, Microcrystalline Cellulose, Croscarmellose Sodium, Povidone (Plasdone® K25), Magnesium Stearate and Silicon Dioxide as excipients. The tablet is manufactured by a wet granulation process performed with a high-shear granulator, followed by compression on a rotary tabletting machine and film-coating of the cores in a perforated pan coater. The composition of the placebo is based on the composition of the 150 mg film-coated tablet. The drug substance and the excipients have been replaced by a mixture of lactose monohydrate and microcrystalline cellulose. The composition of the coating remained constant. Placebo tablets are manufactured by direct compression, followed by film-coating.
Both idebenone (150 mg) and matching placebo were administered as an oral tablet. Patients were to take 1 tablet, 3 times a day with meals, for 12 months (52 weeks).
Pulmonary function testing was performed by one clinical evaluator (physical therapist) with longstanding expertise in the assessment of children with neuromuscular diseases, using state of the art equipment and methods. Testing was done with the patient sitting, with a standardized order of testing. Lung volumes (FVC, FEV1) were measured using a handheld Koko spirometer (PDS Instrumentation, Louisville, USA).
Maximum inspiratory (MIP) and expiratory (MEP) pressures were measured using a Magnehelic® manometer (Dwyer Instrument, Michigan City Ind., USA) connected to a mouthpiece. Peak expiratory flow (PEF) measurements were performed using a portable peak flow meter (Mini-Wright peak flow meter, Clement Clarke International). For all parameters the highest values from three consecutive recordings were used in compliance with criteria published by the American Thoracic Society (ATS) (American Thoracic Society. Am J Respir Crit Care Med 1994; 152:1107-1136).
Pulmonary function testing included the following parameters: • Forced vital capacity (FVC) [L] • Forced vital capacity % predicted • Forced expiratory volume in 1 second (FEV1) [L] • FEV1 (% predicted) • Peak expiratory flow (PEF) [L/min] • Peak expiratory flow (% predicted) • Maximal Inspiratory Pressure (MIP) [cmH2O] • Maximal Inspiratory Pressure (% predicted)
For peak expiratory flow conversion from measured values (in Liter) to ‘% predicted’ was performed by the following equation: […]
“peak expiratory flow−422.8+5.288×height”[height in cm]
For maximal inspiratory pressure (MIP) conversion from measured values (in cm H2O) to ‘% predicted’ was performed by the following equation: […]
“MIP−27.020−(4.132×age)−(0.003×height×weight)”[age: years; height: cm body height; weight: kg]
Efficacy of idebenone was determined for the parameters listed above as changes between baseline and end of treatment (at week 52) and comparisons were made between idebenone treated and placebo treated subjects.

[1] = DMD patients, idebenone 450 mg/day oral, N = 13, week 52, mean ± SD

Compound: COC1=C(OC)C(=O)C(CCCCCCCCCCO)=C(C)C1=O [Idebenone, 2,3-dimethoxy-5-methyl-6-(10-hydroxydecyl)-1,4-benzoquinone]
- FVC (forced vital capacity), Week 52 (DMD patients 8-16 years, idebenone 150 mg 3x daily oral, N = 13, week 52 (end of treatment), mean ± SD): 2.33 ± 0.67 L
- MIP expressed as percent of the predicted value, increase over 52 weeks (DMD patients on idebenone, 52 week treatment period): 4.8±13.0%
- Peak expiratory flow at week 52 compared to baseline (in words) (DMD patients on idebenone, difference in change vs placebo statistically significant): higher at week 52 compared to baseline
- Maximum inspiratory pressure (MIP) over the 52 week treatment period (in words) (DMD patients on idebenone, expressed as more negative number, change clearly different from placebo): increased
- MIP, Change Week 52-BL (DMD patients, idebenone 450 mg/day oral, N = 13, change baseline to week 52, mean ± SD, more negative = larger inspiratory force, p 0.173 vs placebo (one-sided)): −7.33 ± 13.0 cmH2O
- Peak expiratory flow, Change Week 52-BL (DMD patients, idebenone 450 mg/day oral, N = 13, change baseline to week 52, mean ± SD, p 0.039 vs placebo (one-sided)): 30.8 ± 54.4 L/min
- Peak expiratory flow % predicted, Change Week 52-BL (DMD patients, idebenone 450 mg/day oral, N = 13, change baseline to week 52, mean ± SD, p 0.042 vs placebo (one-sided)): 2.8 ± 13.8 % predicted
- MIP % predicted, Change Week 52-BL (DMD patients, idebenone 450 mg/day oral, N = 13, change baseline to week 52, mean ± SD, p 0.142 vs placebo (one-sided)): 4.8 ± 13.0 % predicted
- FVC, Change Week 52-BL (DMD patients, idebenone 450 mg/day oral, N = 13, change baseline to week 52, mean ± SD, p 0.471 vs placebo (one-sided)): 0.14 ± 0.31 L
- FEV1, Change Week 52-BL (DMD patients, idebenone 450 mg/day oral, N = 13, change baseline to week 52, mean ± SD, p 0.484 vs placebo (one-sided)): 0.11 ± 0.37 L
- FEV1 % predicted, Change Week 52-BL (DMD patients, idebenone 450 mg/day oral, N = 13, change baseline to week 52, mean ± SD, p 0.651 vs placebo (one-sided)): −2.0 ± 9.2 % predicted
- FVC % predicted, Change Week 52-BL (DMD patients, idebenone 450 mg/day oral, N = 13, change baseline to week 52, mean ± SD, p 0.793 vs placebo (one-sided)): −1.2 ± 6.4 % predicted
- FEV1 % predicted, Week 52 [1]: 74.5 ± 23.88 % predicted
- FEV1 (forced expiratory volume 1 second), Week 52 [1]: 2.08 ± 0.71 L
- FVC % predicted, Week 52 [1]: 75.3 ± 24.79 % predicted
- MIP % predicted, Week 52 [1]: 44.1 ± 13.38 % predicted
- MIP (maximal inspiratory pressure), Week 52 [1]: −47.3 ± 14.09 cmH2O
- Peak expiratory flow % predicted, Week 52 [1]: 76.9 ± 20.13 % predicted
- Peak expiratory flow, Week 52 [1]: 292.3 ± 90.6 L/min
- Changes in FVC, FVC % predicted, FEV1 and FEV1 % predicted versus placebo (in words) (DMD patients, idebenone treatment 52 weeks): not different from placebo treatment
